Results reported in patent publication US9512107B2, “Therapeutically active compositions and their methods of use” (Agios Pharmaceuticals, Inc., priority 2012, dated 2016).
Changes are numbered by the printed parent chain. Like-named read-outs stand apart in the source and are kept apart here.

What was measured:
IDH2 R172K = target: T1, IDH2 R172K (Homo sapiens, UniProt P48735, R172K); assay: IDH2 R172K enzymatic assay (NADPH cofactor depletion, diaphorase/resazurin readout); type: biochemical; settings: read-out: Enz R172K
T1 sequence (P48735 40-452 R172K): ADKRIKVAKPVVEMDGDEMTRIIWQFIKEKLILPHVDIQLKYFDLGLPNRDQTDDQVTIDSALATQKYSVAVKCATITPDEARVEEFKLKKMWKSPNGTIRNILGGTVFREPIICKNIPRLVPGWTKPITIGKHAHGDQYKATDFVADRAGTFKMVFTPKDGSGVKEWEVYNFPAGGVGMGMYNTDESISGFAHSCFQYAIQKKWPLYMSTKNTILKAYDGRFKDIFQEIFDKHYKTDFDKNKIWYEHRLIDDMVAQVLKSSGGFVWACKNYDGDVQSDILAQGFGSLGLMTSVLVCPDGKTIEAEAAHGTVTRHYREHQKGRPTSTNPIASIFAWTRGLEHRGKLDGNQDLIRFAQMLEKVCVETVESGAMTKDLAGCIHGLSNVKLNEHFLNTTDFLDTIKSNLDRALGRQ
Procedure, shortened: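 Residual NADPH is read out as resorufin fluorescence after quenching with 36 μg/ml diaphorase and 60 μM resazurin in stop mix. The stop follows a 1 h room-temperature reaction started by a substrate mix of NADPH (50 μM) and α-KG (6.3 mM), with compound preincubated with enzyme for 1 h beforehand.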

[1] = test system: U87MG pLVX-IDH2 R140Q-neo cells; assay: U87MG pLVX-IDH2 R140Q-neo cell based assay, 2-HG in media by LC-MS at 48 hours
Procedure, shortened: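 2-HG secreted into the medium was measured by LC-MS after 48 h of compound treatment (0.2% DMSO final) of U87MG pLVX-IDH2 R140Q-neo cells in DMEM/10% FBS. The same wells were assayed at 72 h by CellTiter-Glo luminescence for effects on growth.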

IDH2 R140Q = target: T2, IDH2 R140Q (Homo sapiens, UniProt P48735, R140Q); assay: IDH2 R140Q enzymatic assay (cofactor depletion, similar format); type: biochemical; settings: read-out: Enz R140Q
T2 sequence (P48735 40-452 R140Q): T1 sequence (P48735 40-452 R172K) with R101Q, K133R

| Compound | IC50 (IDH2 R172K) | IC50 ([1]; Homo sapiens, U-87 MG) | IC50 (IDH2 R140Q) | IC50 [1] |
| --- | --- | --- | --- | --- |
| CC(C)Nc1nc(Nc2cccc(S(=O)(=O)NCC(F)(F)F)c2)nc(-c2cccc(Cl)n2)n1 [Compound 518, 3-[4-(6-Chloro-pyridin-2-yl)-6-isopropylamino-[1,3,5]triazin-2-ylamino]-N-(2,2,2-trifluoro-ethyl)-benzenesulfonamide] | < 100 nM | < 100 nM | 100 to 1000 nM |  |
| CC(C)Nc1nc(Nc2cccc(S(=O)(=O)NCC(F)(F)F)c2)nc(-c2cccc(C(F)(F)F)n2)n1 [Compound 519] | 100 to 1000 nM | < 100 nM | 100 to 1000 nM |  |
| CC(C)(C)CNc1nc(Nc2cncnc2)nc(-c2cccc(C(F)(F)F)n2)n1 [Compound 521, N-(2,2-Dimethyl-propyl)-N′-pyrimidin-5-yl-6-(6-trifluoromethyl-pyridin-2-yl)-[1,3,5]triazine-2,4-diamine] | < 100 nM | < 100 nM | 100 to 1000 nM |  |
| CC(C)Nc1nc(Nc2ccnc(C(F)(F)F)c2)nc(-c2nccc(C(F)(F)F)n2)n1 [Compound 522, N2-isopropyl-N4-(2-(trifluoromethyl)pyridin-4-yl)-6-(4-(trifluoromethyl)pyrimidin-2-yl)-1,3,5-triazine-2,4-diamine] | 100 to 1000 nM | < 100 nM | 100 to 1000 nM |  |
| CC(C)(C)CNc1nc(Nc2ccnc(C(F)(F)F)c2)nc(-c2nccc(C(F)(F)F)n2)n1 [Compound 523, N2-neopentyl-N4-(2-(trifluoromethyl)pyridin-4-yl)-6-(4-(trifluoromethyl)pyrimidin-2-yl)-1,3,5-triazine-2,4-diamine] | < 100 nM | < 100 nM | 100 to 1000 nM |  |
| COC(C)CNc1nc(Nc2ccnc(C(F)(F)F)c2)nc(-c2cccc(C(F)(F)F)n2)n1 (stereo not drawn) [Compound 524, N-(2-Methoxy-propyl)-6-(6-trifluoromethyl-pyridin-2-yl)-N′-(2-trifluoromethyl-pyridin-4-yl)-[1,3,5]triazine-2,4-diamine] | < 100 nM | < 100 nM | 100 to 1000 nM |  |
| CC(CO)Nc1nc(Nc2ccnc(C(F)(F)F)c2)nc(-c2cccc(C(F)(F)F)n2)n1 (stereo not drawn) [Compound 527, 2-[4-(6-Trifluoromethyl-pyridin-2-yl)-6-(2-trifluoromethyl-pyridin-4-ylamino)-[1,3,5]triazin-2-ylamino]-propan-1-ol] | < 100 nM | < 100 nM | 100 to 1000 nM |  |
| COCCCNc1nc(Nc2ccnc(C(F)(F)F)c2)nc(-c2cccc(C(F)(F)F)n2)n1 [Compound 528, N-(3-Methoxy-propyl)-N′-(2-trifluoromethyl-pyridin-4-yl)-6-(6-trifluoromethyl-pyridin-2-yl)-[1,3,5]triazine-2,4-diamine] | 100 to 1000 nM | < 100 nM | 100 to 1000 nM |  |
| FC(F)(F)c1cc(Nc2nc(NC3CCOC3)nc(-c3cccc(C(F)(F)F)n3)n2)ccn1 (stereo not drawn) [Compound 529, N-(Tetrahydro-furan-3-yl)-N′-(2-trifluoromethyl-pyridin-4-yl)-6-(6-trifluoromethyl-pyridin-2-yl)-[1,3,5]triazine-2,4-diamine] | < 100 nM | < 100 nM | 100 to 1000 nM |  |
| CC(C)(CO)CNc1nc(Nc2ccnc(C(F)(F)F)c2)nc(-c2cccc(C(F)(F)F)n2)n1 [Compound 530, 2,2-Dimethyl-3-[4-(6-trifluoromethyl-pyridin-2-yl)-6-(2-trifluoromethyl-pyridin-4-ylamino)-[1,3,5]triazin-2-ylamino]-propan-1-ol] | 100 to 1000 nM | < 100 nM | 100 to 1000 nM |  |
| CC1(CNc2nc(Nc3ccnc(C(F)(F)F)c3)nc(-c3cccc(C(F)(F)F)n3)n2)CCCO1 (stereo not drawn) [Compound 531, N-(2-Methyl-tetrahydro-furan-2-ylmethyl)-6-(6-trifluoromethyl-pyridin-2-yl)-N′-(2-trifluoromethyl-pyridin-4-yl)-[1,3,5]triazine-2,4-diamine] | < 100 nM | < 100 nM | 100 to 1000 nM |  |
| CC1CC1Nc1nc(Nc2ccnc(C(F)(F)F)c2)nc(-c2cccc(C(F)(F)F)n2)n1 (stereo not drawn) [Compound 532, N-(2-Methyl-cyclopropyl)-6-(6-trifluoromethyl-pyridin-2-yl)-N′-(2-trifluoromethyl-pyridin-4-yl)-[1,3,5]triazine-2,4-diamine] | < 100 nM | < 100 nM | 100 to 1000 nM |  |
| CC1(Nc2nc(Nc3ccnc(C(F)(F)F)c3)nc(-c3cccc(C(F)(F)F)n3)n2)CC1 [Compound 533, N-(1-Methyl-cyclopropyl)-6-(6-trifluoromethyl-pyridin-2-yl)-N′-(2-trifluoromethyl-pyridin-4-yl)-[1,3,5]triazine-2,4-diamine] | < 100 nM | < 100 nM | 100 to 1000 nM |  |
| CC(C)Nc1nc(Nc2ccc(F)nc2)nc(-c2nccc(C(F)(F)F)n2)n1 [Compound 535, N-(6-Fluoro-pyridin-3-yl)-N′-isopropyl-6-(4-trifluoromethyl-pyrimidin-2-yl)-[1,3,5]triazine-2,4-diamine] | 100 to 1000 nM | < 100 nM | 100 to 1000 nM |  |
| CC(C)Nc1nc(Nc2cncc(C(F)(F)F)c2)nc(-c2nccc(C(F)(F)F)n2)n1 [Compound 536, N-Isopropyl-N′-(5-trifluoromethyl-pyridin-3-yl)-6-(4-trifluoromethyl-pyrimidin-2-yl)-[1,3,5]triazine-2,4-diamine] | 100 to 1000 nM | < 100 nM | 1000 to 10000 nM |  |
| CC(C)Nc1nc(Nc2ccnc(F)c2)nc(-c2nccc(C(F)(F)F)n2)n1 [Compound 537, N-(2-Fluoro-pyridin-4-yl)-N′-isopropyl-6-(4-trifluoromethyl-pyrimidin-2-yl)-[1,3,5]triazine-2,4-diamine] | < 100 nM | < 100 nM | 100 to 1000 nM |  |
| CC(C)Nc1nc(Nc2ccnc(F)c2)nc(-c2nccc(C(F)(F)F)n2)n1 [Compound 538] | 100 to 1000 nM |  | 1000 to 10000 nM | < 100 nM |
| OC1(CNc2nc(Nc3cc(F)cc(F)c3)nc(-c3cccc(C(F)(F)F)n3)n2)CC1 [Compound 541, 1-{[4-(3,5-Difluoro-phenylamino)-6-(6-trifluoromethyl-pyridin-2-yl)-[1,3,5]triazin-2-ylamino]-methyl}-cyclopropanol] | 100 to 1000 nM | < 100 nM | 100 to 1000 nM |  |
| CC(C)Nc1nc(Nc2cccc(C(C)(C)O)c2)nc(-c2cccc(C(F)(F)F)n2)n1 [Compound 542, 2-{3-[4-Isopropylamino-6-(6-trifluoromethyl-pyridin-2-yl)-[1,3,5]triazin-2-ylamino]-phenyl}-propan-2-ol] | < 100 nM | < 100 nM | 100 to 1000 nM |  |
| Cn1cc(Nc2nc(Nc3ccnc(C(F)(F)F)c3)nc(-c3cccc(C(F)(F)F)n3)n2)cn1 [Compound 543, N-(1-Methyl-1H-pyrazol-4-yl)-6-(6-trifluoromethyl-pyridin-2-yl)-N′-(2-trifluoromethyl-pyridin-4-yl)-[1,3,5]triazine-2,4-diamine] | 100 to 1000 nM | < 100 nM | 100 to 1000 nM |  |
| Cn1nccc1Nc1nc(Nc2ccnc(C(F)(F)F)c2)nc(-c2cccc(C(F)(F)F)n2)n1 [Compound 544, N-(2-Methyl-2H-pyrazol-3-yl)-6-(6-trifluoromethyl-pyridin-2-yl)-N′-(2-trifluoromethyl-pyridin-4-yl)-[1,3,5]triazine-2,4-diamine] | 100 to 1000 nM | < 100 nM | 100 to 1000 nM |  |
| FC(F)(F)c1cc(Nc2nc(Nc3cncs3)nc(-c3cccc(C(F)(F)F)n3)n2)ccn1 [Compound 546, N2-(thiazol-5-yl)-6-(6-(trifluoromethyl)pyridin-2-yl)-N4-(2-(trifluoromethyl)pyridin-4-yl)-1,3,5-triazine-2,4-diamine] | 100 to 1000 nM | < 100 nM | 100 to 1000 nM |  |
| FC(F)(F)c1cc(Nc2nc(NCC3CCOC3)nc(-c3cccc(C(F)(F)F)n3)n2)ccn1 (stereo not drawn) [Compound 547, N-(Tetrahydro-furan-3-ylmethyl)-N′-(2-trifluoromethyl-pyridin-4-yl)-6-(6-trifluoromethyl-pyridin-2-yl)-[1,3,5]triazine-2,4-diamine] | < 100 nM | < 100 nM | 100 to 1000 nM |  |
| CC(O)C(C)Nc1nc(Nc2ccnc(C(F)(F)F)c2)nc(-c2cccc(C(F)(F)F)n2)n1 (stereo not drawn) [Compound 548, 3-[4-(6-Trifluoromethyl-pyridin-2-yl)-6-(2-trifluoromethyl-pyridin-4-ylamino)-[1,3,5]triazin-2-ylamino]-butan-2-ol] | 100 to 1000 nM | < 100 nM | 100 to 1000 nM |  |
